From patent US20250228858A1, “ANTI-CANCER COMBINATION THERAPY” (Boehringer Ingelheim International GmbH, priority 2023, published 2025)

System: HER2-overexpressing human NSCLC cell line Calu-3
Experiment: Calu-3 subcutaneous xenograft, zongertinib with trastuzumab and/or pertuzumab
Assay type: in vivo, CB-17/Icr-Prkdc^scid mice
Details: day 42, zongertinib 20 mg/kg qdx42 p.o., trastuzumab 20 mg/kg q7dx6 i.p., pertuzumab 20 mg/kg q7dx6 i.p., alone or combined
Method: The study is performed in human NSCLC cell line Calu-3 grown as subcutaneous xenografts in CB-17/Icr-Prkdc^scid mice. Day 1 was the first day, day 42 the last day of treatment and final day of analysis.
Calu-3 is a HER2-overexpressing human NSCLC cell line that can be obtained from ATCC (lot 614492062). Cells are cultured in T75, T175 and 5-Layer tissue culture flasks at 37° C. and 5% CO2. The medium used is EMEM (Lonza BE12-662F) supplemented with 10% FCS (Cytiva HyClone Characterized FBS, SH30084.03n), 2 mM Glutamax (Gibco 35050-038), 0.5 mM sodium pyruvate (Sigma S8636). Cultures are split once weekly with a ratio of 1:1.5-1:2.
To establish subcutaneous tumors, Calu-3 cells are harvested by centrifugation, washed and resuspended in PBS+5% FCS at 7×10^7 cells/ml. 50 μl cell suspension containing 3.5×10^6 cells is injected subcutaneously into the right flank of mice (1 site per mouse).
Mice in the control group are treated with vehicle, i.e.: • (i) 0.5% Natrosol, administered once daily for the duration of the treatment intragastrally by gavage needle with a volume of 10 ml/kg body weight; and • (ii) saline (0.9%), administered once every week intraperitoneally with a volume of 10 ml/kg.
Tumor volumes and side effects are monitored as described in Example 1 (see paragraph 1.1.6).
The statistical evaluation of the tumor volume and the body weight is conducted on day 21 (last day of the study). Apart from this, statistical analysis was performed as described in Example 1 (see paragraph 1.1.7), with no evaluation of tumor growth after stop of treatment.

SMILES: C=CC(=O)NC1CCN(c2ncc3ncnc(Nc4ccc(Oc5ccc6c(c5)ncn6C)c(C)c4)c3n2)CC1 [Zongertinib, N-{1-[8-({3-methyl-4-[(1-methyl-1H-1,3-benzodiazol-5-yl)oxy]phenyl}amino)-[1,3]diazino [5,4-d]pyrimidin-2-yl]piperidin-4-yl}prop-2-enamide]
- Regressions >30% (tumors regressed/total (partial response)): 0/10
- TGI: 64%
